Measured values taken from patent publication US12569453B2, “Use of tapinarof for the treatment of atopic dermatitis” (Dermavant Sciences GmbH, priority 2018, dated 2026).

Key:
Assay type in all cases: in vivo, human
[1] = tested on: adolescent and adult subjects with AD; assay: Phase II AD study: safety and tolerability
Protocol: (§1) Safety was assessed by the monitoring and recording of all AEs and serious adverse events (SAEs); evaluation of local (application site) tolerability; monitoring of hematology (including peripheral blood immunophenotyping and immunoglobulins), clinical chemistry, and vital signs; and the performance of ECGs and physical examinations.

[2] = Phase II psoriasis study: plasma PK samples; conditions: of 860 samples from patients receiving an active dose
Protocol: Pharmacokinetics: Sparse PK sampling throughout the duration of the study was intended to be used to develop a population PK model and to estimate population PK parameters (i.e., apparent clearance [CL/F], apparent volume of distribution [V/F]) of systemic exposure, according to the Time and Events Table. Plasma analysis was performed under the management of Bioanalysis, Immunogenicity & Biomarkers, IVIVT, PTS, GSK.
The bioanalytical method used to support the study was a fully validated Liquid Chromatography-Tandem Mass Spectrometry (LC-MS/MS) method in accordance with FDA/EU/MHLW guidelines [US Department of Health and Human Services, Food and Drug Administration Draft Guidance for Industry: Bioanalytical Method Validation, 2013] [European Medicines Agency Guideline on Bioanalytical Method Validation, 2011] [Japanese Ministry of Health Guideline on Bioanalytical Method Validation in Pharmaceutical Development, 2013].

[3] = tested on: adult subjects with psoriasis; assay: Phase II/2b psoriasis study: safety and tolerability
Protocol: as §1, with “Immunophenotyping” for “immunophenotyping”, “Immunoglobulins),” for “immunoglobulins),”
Safety assessments included incidence, frequency and severity of AEs, evaluation of local (application-site) tolerability, clinical laboratory parameters, vital signs, electrocardiogram changes, and physical examinations. An unblinded Independent Data Monitoring Committee monitored patient safety. Investigators assessed the overall degree of irritation at the application sites using a scale of 0 (no irritation) to 4 (very severe/strong reaction) at each study visit. A score of 3 or 4 was reported as an AE. Study treatment was discontinued if a score of 4 was noted. Subject-reported tolerability was assessed using a 5-point tolerability scale of 0 (none) to 4 (strong/severe) to assess the presence and degree of burning/stinging and itching at the application site within 2 hours following application of tapinarof or vehicle.

[4] = Japanese subjects, pooled active (n=30)
[5] = adolescent subjects, pooled active (n=49)
[6] = adult subjects, pooled active (n=116)
[7] = all cases in active treatment groups
[8] = pooled active treatment groups (n=165)
[9] = pooled active treatment groups (n=152)
[10] = pooled tapinarof groups (n=152)

Compound: CC(C)c1c(O)cc(/C=C/c2ccccc2)cc1O [Tapinarof, 3,5-Dihydroxy-4-isopropyl-trans-stilbene]
- Impetigo ([1]; 0.5% BID): 0 n
- Serious TEAEs ([1]; 0.5% BID): 0 n
- atopic dermatitis leading to study treatment discontinuation ([1]; 0.5% BID): 7%
- subjects with abnormal clinically significant ECGs at any post-screening visit ([1]; 0.5% BID): 12%
- Nasopharyngitis ([1]; 0.5% BID, listed as GSK2894512): 4 n
- Impetigo ([1]; 0.5% QD): 0 n
- Serious TEAEs ([1]; 0.5% QD): 0 n
- atopic dermatitis leading to study treatment discontinuation ([1]; 0.5% QD): 2%
- subjects with abnormal clinically significant ECGs at any post-screening visit ([1]; 0.5% QD): 21%
- Nasopharyngitis ([1]; 0.5% QD, listed as GSK2894512): 1 n
- subjects with abnormal clinically significant ECGs at any post-screening visit ([1]; 1% BID): 30%
- Nasopharyngitis ([1]; 1% BID, listed as GSK2894512): 3 n
- Acne ([1]; 1% QD): 0 n
- Dermatitis atopic ([1]; 1% QD): 0 n
- Discontinuous due to TEAEs ([1]; 1% QD): 0 n
- Impetigo ([1]; 1% QD): 0 n
- Serious TEAEs ([1]; 1% QD): 0 n
- subjects with abnormal clinically significant ECGs at any post-screening visit ([1]; 1% QD): 24%
- Nasopharyngitis ([1]; 1% QD, listed as GSK2894512): 5 n
- subjects permanently discontinuing treatment due to TEAEs [1, 4]: 3%
- subjects with mild TEAEs [1, 4]: 50%
- subjects with moderate TEAEs [1, 4]: 10%
- subjects with treatment-related TEAEs [1, 4]: 17%
- atopic dermatitis AE, median duration ([1]; active treatment groups): 12.5 days
- atopic dermatitis AE, median time to onset ([1]; active treatment groups): 40.5 days
- headache, median duration ([1]; active treatment groups): 2 days
- headache, median time to onset ([1]; active treatment groups): 2 days
- nasopharyngitis, median duration ([1]; active treatment groups): 9 days
- nasopharyngitis, median time to onset ([1]; active treatment groups): 32 days
- upper respiratory tract infection, median duration ([1]; active treatment groups): 16.5 days
- upper respiratory tract infection, median time to onset ([1]; active treatment groups): 32.5 days
- subjects permanently discontinuing treatment due to TEAEs [1, 5]: 6%
- subjects with mild TEAEs [1, 5]: 41%
- subjects with moderate TEAEs [1, 5]: 14%
- subjects with severe TEAEs [1, 5]: 2%
- subjects with treatment-related TEAEs [1, 5]: 16%
- subjects permanently discontinuing treatment due to TEAEs [1, 6]: 3%
- subjects with mild TEAEs [1, 6]: 28%
- subjects with moderate TEAEs [1, 6]: 25%
- subjects with severe TEAEs [1, 6]: 3%
- subjects with treatment-related TEAEs [1, 6]: 14%
- folliculitis, median start date (since Day 1) [1, 7]: 17 days
- subjects with elevations in liver chemistries (ALT/AST >2×ULN) ([1]; all in Tapinarof treatment groups): 6 subjects
- treatment-related atopic dermatitis ([1]; pooled active groups): 1%
- Acne ([1]; pooled active groups (n=165)): 4%
- Impetigo ([1]; pooled active groups (n=165)): 1%
- Nasopharyngitis ([1]; pooled active groups (n=165)): 8%
- atopic dermatitis (worsening/flare) ([1]; pooled active groups (n=165)): 4%
- atopic dermatitis leading to study treatment discontinuation ([1]; pooled active groups (n=165)): 2%
- folliculitis ([1]; pooled active groups (n=165)): 11%
- headache ([1]; pooled active groups (n=165)): 5%
- treatment-related application site pain ([1]; pooled active groups (n=165)): 1%
- treatment-related folliculitis ([1]; pooled active groups (n=165)): 5%
- upper respiratory tract infection ([1]; pooled active groups (n=165)): 7%
- subjects permanently discontinuing treatment due to TEAEs [1, 8]: 4%
- subjects with TEAEs [1, 8]: 56%
- subjects with mild TEAEs [1, 8]: 32%
- subjects with moderate TEAEs [1, 8]: 22%
- subjects with severe TEAEs [1, 8]: 2%
- subjects with treatment-related TEAEs [1, 8]: 15%
- subjects with TEAEs considered related to treatment ([1]; treatment groups pooled): 24 subjects
- subjects with at least one AE ([1]; treatment groups pooled): 97 subjects
- subjects with at least one TEAE ([1]; treatment groups pooled): 93 subjects
- plasma samples below the Lower Limit of Quantitation (LLQ) [2]: 649 samples
- plasma samples quantified [2]: 157 samples
- Application-site dermatitis ([3]; 0.5% BID): 0 n
- Dermatitis allergic ([3]; 0.5% BID): 0 n
- Miliaria ([3]; 0.5% BID): 0 n
- Urticaria ([3]; 0.5% BID): 0 n
- headache ([3]; 0.5% BID): 0 n
- Acne ([3]; 0.5% QD): 0 n
- Dermatitis allergic ([3]; 0.5% QD): 0 n
- Serious TEAEs ([3]; 0.5% QD): 0 n
- Urticaria ([3]; 0.5% QD): 0 n
- Vomiting ([3]; 0.5% QD): 0 n
- Miliaria ([3]; 1% BID): 0 n
- Urticaria ([3]; 1% BID): 0 n
- Vomiting ([3]; 1% BID): 0 n
- Nasopharyngitis ([3]; 1% BID, listed as GSK2894512): 1 n
- folliculitis ([3]; 1% BID, listed as GSK2894512): 8 n
- Acne ([3]; 1% QD): 0 n
- Dermatitis allergic ([3]; 1% QD): 0 n
- Nasopharyngitis ([3]; 1% QD): 0 n
- Vomiting ([3]; 1% QD): 0 n
- folliculitis, median duration (resolved events) ([3]; active treatment groups): 55 days
- folliculitis, median time to onset ([3]; active treatment groups): 26 days
- headache, median duration ([3]; active treatment groups): 3 days
- headache, median time to onset ([3]; active treatment groups): 2.5 days
- nasopharyngitis, median duration ([3]; active treatment groups): 12 days
- nasopharyngitis, median time to onset ([3]; active treatment groups): 13 days
- contact dermatitis, median duration [3, 7]: 32 days
- contact dermatitis, median time to onset [3, 7]: 30 days
- subjects with serious TEAEs ([3]; all in Tapinarof treatment groups, none treatment-related): 7 subjects
- Nasopharyngitis [3, 9]: 5%
- Vomiting [3, 9]: 2%
- headache [3, 9]: 4%
- subjects permanently discontinuing treatment due to TEAEs [3, 9]: 10%
- subjects with TEAEs [3, 9]: 56%
- subjects with mild TEAEs [3, 9]: 27%
- subjects with moderate TEAEs [3, 9]: 22%
- subjects with severe TEAEs [3, 9]: 7%
- subjects with treatment-related TEAEs [3, 9]: 22%
- treatment-related monocyte count decreased [3, 9]: 1%
- contact dermatitis [3, 10]: 8%
- folliculitis [3, 10]: 13%
- treatment-related folliculitis [3, 10]: 10%
- subjects with TEAEs considered related to treatment ([3]; treatment groups pooled): 34 subjects
- subjects with at least one AE ([3]; treatment groups pooled): 89 subjects
- subjects with at least one TEAE ([3]; treatment groups pooled): 85 subjects
